Experimental data as given in US20130316958A1 (University of Southern California, priority 2010, published 2013).

Columns and labels:
Type in all cases: cell-based
NIH3T3 cells = assay: GFP-LC3 autophagy with ectopic FLIP expression; settings: Hank's solution 4 hr or 2 μM rapamycin 3 hr
Protocol: At 12-16 hours post-transfection with GFP-LC3, NIH3T3 cells containing vector or the FLIP gene were treated with Hank's solution for 4 hr or with 2 μM rapamycin for 3 hr. Subsequently, GFP-LC3 was detected using an inverted fluorescence microscope, autophagy was quantified as means (±SD) of the combined results from three independent experiments, and autophagosomes were visualized through scanning electron microscopy. NIH3T3-Vector, NIH3T3-KSHV-vFLIP, and NIH3T3-MCV-159L cells were treated with Hank's solution for 4 hr, followed by immunoblotting with anti-LC3 and anti-βTubulin. At 12-16 hr post-transfection with GFP-LC3, TREX-BCBL-Vector and TREX-BCBL-vFLIP cells were treated with doxycycline for 24 hr, followed by incubation with 2 μM rapamycin for an additional 12 hr. The detection of GFP-LC3 and autophagy levels was performed as described above, vFLIP expression was detected by IB with anti-Flag, and autophagosomes were visualized by scanning EM. TNF-induced apoptosis and NF-κB luciferase assay were performed as previously described (Matta and Chaudhary (2004) Proc. Natl. Acad. Sci. USA 101:9399-9404).
The anti-autophagic properties of vFLIP, as well as the related cFLIP, HSV, and MCV, were evaluated by ectopic expression of HVS, vFLIP, MCV 159L, and the short form of cFLIP (cFLIPs) in NIHI3T3 cells. DNA fragments corresponding to the coding sequences of the KSHV-vFLIP, human cFLIPs, MCV-MC159, and HVS-vFLIP genes were amplified via polymerase chain reaction and subcloned into pcDNA5/FRT/TO between the AflII and BamHI restriction sites or pEF-IRES-puro between the AflII and XbaI sites. Starvation studies were carried out by transfecting cells containing vector or the FLIP gene with GFP-LC3, then 12-16 h post-transfection, treating the cells with Hank's solution for 4 hr or with 2 μM rapamycin for 3 hr. Autophagy was assessed by GFP-LC3 redistribution using an inverted fluorescence microscope, quantifying autophagy as means (±SD) of the combined results from three independent experiments. Autophagosomes were visualized through scanning electron microscopy. […]

TREX-BCBL cells = assay: vFLIP expression in KSHV-infected BCBL1 cells: autophagy, growth suppression and death
Protocol: To investigate whether vFLIP expression suppresses autophagy in virus-infected cells, a KSHV-infected BCBL1 cell line was constructed (TREX-BCBL) in which a Flag-tagged KSHV-vFLIP gene was integrated into the chromosomal DNA under the control of a tetracycline-inducible promoter. (Nakamura et al. (2003) J. Virol. 77:4205-4220). At 12-16 hr post-transfection with GFP-LC3, TREX-BCBL-Vector and TREX-BCBL-vFLIP cells were treated with Doxycycline for 24 hr, followed by incubation with 2 μM rapamycin for an additional 12 hr. The detection of GFP-LC3 and autophagy levels was performed as described above, vFLIP expression was detected by IB with anti-Flag, and autophagosomes were visualized by scanning EM (scale bar=50 nm). Treatment of these cells with doxycycline strongly activated Flag-vFLIP expression.
The effect of vFLIP on autophagy was tested in a KSHV-infected BCBL1 cell line. TREX-BCBL-Vector and TREX-BCBL-vFLIP cells were treated with rapamycin or left untreated for 6 days in the presence of doxycycline and subjected to scanning EM, to examine the morphologies of over 100 dead cells and quantify cell death for apoptosis and autophagic death, or subjected to PI staining and cell cycle analysis.
All siRNAs were produced by Dharmacon Research. siRNAs specific for human Beclin1 (5′[…]3′) and a nonspecific scrambled control siRNA were transfected using DharmaFect reagent (Dharmacon) according to the manufacturer's instructions. At 48-72 hr post-transfection, cells were analyzed for autophagy. Trypan blue staining and a Beckman Coulter Z2 Particle Count and Size analyzer were used to determine cell death (as a percentage) at day 5.

NF-κB = NF-κB luciferase reporter assay; settings: NIH3T3 cells, 48 hr post-transfection
Description: To determine the effects of the interactions of vFLIP with FADD, IKKαβγ, and 14-3-3σ on anti-autophagy activity, NIH3T3 cells stably expressing various vFLIP mutants were constructed: m14-3-3σ, which lacks 14-3-3σ-binding; mTRAF2, which lacks TRAF2-binding (Guasparri et al. (2006) EMBO Rep. 7:114-119); 67AAA and 58AAA, which have reduced NF-κB activation (Matta and Chaudhary (2004) Proc. Natl. Acad. Sci. USA 101:9399-9404); and mFADD, which lacks FADD-binding (Yang et al. (2005) Mol. Cell. 20:939-949). These cells were treated with either cyclohexamide (CHX) alone or CHX and TNF-α for 12 hr or with 2 μM rapamycin for 3 hr. Propidium iodide (PI) staining and flow cytometry analysis were performed to determine apoptosis levels. Alternatively, NIH3T3 cells containing vector, KSHV vFLIP, or its mutants were transfected with an NF-κB-luciferase reporter construct and a control renilla luciferase plasmid, pRL-SV40 (Promega). At 48 hr post-transfection, luciferase activity was measured with a luminometer using a dual luciferase assay kit (Promega) and normalized with renilla luciferase activity to determine transfection efficiency. GFP-LC3 puncta were detected using an inverted fluorescence microscope and the autophagy levels quantified as means (±SD) of the results from three independent experiments.

## KSHV vFLIP: viral FLICE-like inhibitor protein of Kaposi's sarcoma-associated herpesvirus, expressed in cells
NIH3T3 cells
  suppression of starvation- and rapamycin-induced autophagy: strongly suppressed starvation- and rapamycin-induced autophagy
TREX-BCBL cells; TREX-BCBL-vFLIP cells
  block of rapamycin-induced autophagy and cell death: readily blocked rapamycin-induced autophagy and cell death
  inhibition of peptide-induced autophagy and cell death: minimal
TREX-BCBL cells; doxycycline 24 hr, 2 μM rapamycin 12 hr
  suppression of rapamycin-induced autophagy in TREX-BCBL cells: extensively suppressed rapamycin-induced autophagy
TREX-BCBL cells; ectopic expression in BCBL1 cells
  block of rapamycin- or zVAD-induced growth suppression and autophagic death: almost completely blocked
NF-κB
  NF-κB activation: carried out NF-κB activation
